From ChEMBL document CHEMBL1250451, “Mechanistic insights into a Ca2+-dependent family of alpha-mannosidases in a human gut symbiont” (Nat Chem Biol, 2010) come the findings set out here.

The source made the active and inactive calls. The rule behind the calls is not given here.

Assay type in all cases: protein assay
In experiment [1] the target is T1, Alpha-1,2-mannosidase family protein (BT_1032) (Bacteroides thetaiotaomicron) (UniProt Q8A8Y5).
T1 sequence (whole entry): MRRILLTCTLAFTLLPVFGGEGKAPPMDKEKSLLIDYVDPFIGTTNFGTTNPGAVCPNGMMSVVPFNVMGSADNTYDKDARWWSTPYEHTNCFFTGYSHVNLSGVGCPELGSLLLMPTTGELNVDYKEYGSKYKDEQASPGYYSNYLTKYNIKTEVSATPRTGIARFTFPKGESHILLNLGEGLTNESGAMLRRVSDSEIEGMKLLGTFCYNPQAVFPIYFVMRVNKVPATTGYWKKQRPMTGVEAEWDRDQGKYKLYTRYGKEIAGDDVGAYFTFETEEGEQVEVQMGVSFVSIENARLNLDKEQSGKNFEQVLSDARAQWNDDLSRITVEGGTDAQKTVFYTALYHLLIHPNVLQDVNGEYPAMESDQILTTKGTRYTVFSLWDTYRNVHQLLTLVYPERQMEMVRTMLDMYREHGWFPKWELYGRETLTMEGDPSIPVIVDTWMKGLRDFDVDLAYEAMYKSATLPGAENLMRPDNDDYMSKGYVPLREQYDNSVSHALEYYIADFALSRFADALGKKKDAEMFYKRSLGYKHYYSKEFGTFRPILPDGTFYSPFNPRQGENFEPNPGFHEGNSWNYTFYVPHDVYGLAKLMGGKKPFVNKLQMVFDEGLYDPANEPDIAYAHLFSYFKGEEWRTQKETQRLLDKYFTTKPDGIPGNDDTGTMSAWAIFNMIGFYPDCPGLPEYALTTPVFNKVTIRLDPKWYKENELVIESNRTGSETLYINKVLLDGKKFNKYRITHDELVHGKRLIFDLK
The experiment in a line: Activity of Bacteroides thetaiotaomicron GH92 alpha-mannosidase 1032 assessed as mannose release at 1 mM after 16 hrs by HPLC relative to untreated control.

The target in experiment [2] is T2, Alpha-1,2-mannosidase (BT_2629) (Bacteroides thetaiotaomicron) (UniProt Q8A4H0).
T2 sequence (whole entry): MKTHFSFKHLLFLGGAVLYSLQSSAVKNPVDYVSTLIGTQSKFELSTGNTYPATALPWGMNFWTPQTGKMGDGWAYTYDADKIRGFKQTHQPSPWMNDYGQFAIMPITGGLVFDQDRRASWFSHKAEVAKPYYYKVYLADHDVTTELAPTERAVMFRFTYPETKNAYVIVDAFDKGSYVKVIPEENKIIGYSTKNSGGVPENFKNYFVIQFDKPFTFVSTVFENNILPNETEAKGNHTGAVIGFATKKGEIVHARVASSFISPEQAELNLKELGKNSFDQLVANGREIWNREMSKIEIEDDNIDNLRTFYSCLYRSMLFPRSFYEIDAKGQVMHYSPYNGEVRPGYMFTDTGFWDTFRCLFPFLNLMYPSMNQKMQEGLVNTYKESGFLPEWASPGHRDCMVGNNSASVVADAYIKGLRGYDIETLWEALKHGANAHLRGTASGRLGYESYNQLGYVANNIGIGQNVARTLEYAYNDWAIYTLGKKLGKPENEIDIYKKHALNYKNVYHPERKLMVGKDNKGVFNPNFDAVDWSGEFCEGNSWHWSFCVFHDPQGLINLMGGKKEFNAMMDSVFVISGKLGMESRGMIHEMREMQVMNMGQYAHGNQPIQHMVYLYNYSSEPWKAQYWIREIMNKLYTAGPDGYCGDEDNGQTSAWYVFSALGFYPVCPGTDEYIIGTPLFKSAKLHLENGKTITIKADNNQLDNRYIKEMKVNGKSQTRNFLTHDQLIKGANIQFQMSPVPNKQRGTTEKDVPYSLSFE
The experiment in a line: Activity of Bacteroides thetaiotaomicron GH92 alpha-mannosidase GH92 alpha-mannosidase 2629 assessed as mannose release at 1 mM after 16 hrs by HPLC relative to untreated control after 16 hrs by HPLC.

The target in experiment [3] is T3, Alpha-1,2-mannosidase (BT_3965) (Bacteroides thetaiotaomicron) (UniProt Q8A0Q6).
T3 sequence (whole entry): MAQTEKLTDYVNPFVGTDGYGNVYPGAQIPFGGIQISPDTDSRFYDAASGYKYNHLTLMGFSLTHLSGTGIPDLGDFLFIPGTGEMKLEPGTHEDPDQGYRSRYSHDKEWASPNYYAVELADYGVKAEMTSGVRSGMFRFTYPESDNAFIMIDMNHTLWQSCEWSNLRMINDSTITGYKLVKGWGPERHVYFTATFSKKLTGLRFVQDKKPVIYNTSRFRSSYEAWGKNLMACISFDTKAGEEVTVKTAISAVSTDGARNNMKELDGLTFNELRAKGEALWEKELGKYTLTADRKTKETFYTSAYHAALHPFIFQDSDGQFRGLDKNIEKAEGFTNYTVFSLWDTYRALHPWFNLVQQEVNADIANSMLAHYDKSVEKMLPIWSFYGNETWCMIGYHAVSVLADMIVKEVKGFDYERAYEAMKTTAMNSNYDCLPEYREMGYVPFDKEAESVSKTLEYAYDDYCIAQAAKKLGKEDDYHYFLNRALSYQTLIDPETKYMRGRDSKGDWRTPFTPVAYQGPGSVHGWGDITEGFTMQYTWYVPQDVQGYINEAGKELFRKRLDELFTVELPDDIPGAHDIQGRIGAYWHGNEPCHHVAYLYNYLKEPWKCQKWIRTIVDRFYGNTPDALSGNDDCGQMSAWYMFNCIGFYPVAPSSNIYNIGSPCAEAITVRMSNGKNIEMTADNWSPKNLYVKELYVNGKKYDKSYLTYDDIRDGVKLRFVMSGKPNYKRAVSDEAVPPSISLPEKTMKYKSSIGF
Kind of experiment: Activity of Bacteroides thetaiotaomicron GH92 alpha-mannosidase GH92 alpha-mannosidase 3965 assessed as mannose release at 1 mM after 16 hrs by HPLC relative to untreated control after 16 hrs by HPLC.

As to `OC[C@H]1O[C@H](O[C@H]2[C@@H](O)[C@H](O)[C@@H](CO)O[C@@H]2O)[C@@H](O)[C@@H](O)[C@@H]1O`, the result in experiment [1] and in experiment [2] was inactive. Besides, in experiment [3], the Activity was 0.27%.
As for `OC[C@H]1O[C@H](O[C@H]2[C@H](O)[C@H](O)[C@@H](O)O[C@@H]2CO)[C@@H](O)[C@@H](O)[C@@H]1O`, the result in experiment [1] and in experiment [2] was inactive. The Activity in experiment [3] amounted to 100%.
As to `OC[C@H]1O[C@H](OC[C@H]2O[C@H](O)[C@@H](O)[C@@H](O)[C@@H]2O)[C@@H](O)[C@@H](O)[C@@H]1O`, the outcome in experiment [1] and in experiment [2] was inactive. Besides, the Activity in experiment [3] amounted to 0.64%.
On to `OC[C@H]1O[C@H](O[C@@H]2[C@H](O)[C@@H](O)O[C@H](CO)[C@H]2O)[C@@H](O)[C@@H](O)[C@@H]1O`, for which the result in experiment [1] and in experiment [2] was inactive. Also, the Activity in experiment [3] was 0.09%.
